Reference: patent US10947188B2, “Small molecule ferroptosis inducers” (THE TRUSTEES OF COLUMBIA UNIVERSITY IN THE CITY OF NEW YORK, priority 2016, dated 2021)

How the values were obtained:
[1] = system: HT-1080; test: Modulatory profiling: Alamar Blue viability, lethal compound cotreated with death modulator (EC50, AUC); assay type: cell-based; parameters: AUC, modulator HT.3MA / AUC, modulator HT.ALLN / AUC HT.ATA / AUC HT.ActD / AUC HT.BHA / AUC HT.BHT / AUC HT.BocD / AUC HT.CHX / AUC HT.Co2+ / AUC HT.DPQ / AUC HT.EGTA / AUC HT.Lmim / AUC HT.NAD+ / AUC HT.Nec-1 / AUC HT.SP600125 / AUC HT.TLCK / AUC HT.U0126: unit not given beside the values; conditions: for AUC HT.ATA: HT-1080, modulator ATA; for AUC HT.ActD: HT-1080, modulator ActD; for AUC HT.BHA: HT-1080, modulator BHA; for AUC HT.BHT: HT-1080, modulator BHT; for AUC HT.BocD: HT-1080, modulator BocD; for AUC HT.CHX: HT-1080, modulator CHX; for AUC HT.Co2+: HT-1080, modulator Co2+; for AUC HT.CspA: HT-1080, modulator CspA; for AUC HT.DPQ: HT-1080, modulator DPQ; for AUC HT.EGTA: HT-1080, modulator EGTA; for AUC HT.Gd3+: HT-1080, modulator Gd3+; for AUC HT.LNAME: HT-1080, modulator LNAME; for AUC HT.Lmim: HT-1080, modulator Lmim; for AUC HT.NAD+: HT-1080, modulator NAD+; for AUC HT.NMMA: HT-1080, modulator NMMA; for HT.atoc (AUC) / HT.bCarotene (AUC) / HT.deferox (AUC) / HT.digoxin (AUC) / HT.trolox (AUC) / HT.zVAD (AUC): HT-1080; for HT.atoc (AUC): modulator atoc; for HT.bCarotene (AUC): modulator bCarotene; for HT.deferox (AUC): modulator deferox; for HT.digoxin (AUC): modulator digoxin; for HT.trolox (AUC): modulator trolox; for HT.zVAD (AUC): modulator zVAD; for AUC, modulator HT.3MA / AUC, modulator HT.ALLN: HT-1080 cells, modulatory profile value (AUC); for AUC, modulator HT.3MA: lethal compound cotreated with modulator 3MA; for AUC, modulator HT.ALLN: lethal compound cotreated with modulator ALLN
[2] = system: BJeLR; test: as above; assay type: cell-based, human; parameters: AUC, modulator BJ.Gd3+ / AUC, modulator BJ.LNAME / AUC, modulator BJ.Lmin / AUC, modulator BJ.3MA / AUC, modulator BJ.ALLN / AUC, modulator BJ.Boc D / AUC, modulator BJ.CHX / AUC, modulator BJ.Co2+ / AUC, modulator BJ.Nec-1 / AUC, modulator BJ.Pepstatin / AUC, modulator BJ.TLCK / AUC, modulator BJ.atoc / AUC, modulator BJ.trolox / AUC, modulator BJ.zVAD: unit not given beside the values; conditions: BJeLR cells, modulatory profile value (AUC); for AUC, modulator BJ.3MA: lethal compound cotreated with modulator 3MA; for AUC, modulator BJ.ALLN: lethal compound cotreated with modulator ALLN; for AUC, modulator BJ.Boc D: lethal compound cotreated with modulator Boc D; for AUC, modulator BJ.CHX: lethal compound cotreated with modulator CHX; for AUC, modulator BJ.Co2+: lethal compound cotreated with modulator Co2+; for AUC, modulator BJ.DPQ: lethal compound cotreated with modulator DPQ; for AUC, modulator BJ.Gd3+: lethal compound cotreated with modulator Gd3+; for AUC, modulator BJ.LNAME: lethal compound cotreated with modulator LNAME; for AUC, modulator BJ.Lmin/NAD+: lethal compound cotreated with modulator Lmin/NAD+; for AUC, modulator BJ.Lmin: lethal compound cotreated with modulator Lmin; for AUC, modulator BJ.NAD+: lethal compound cotreated with modulator NAD+; for AUC, modulator BJ.NMMA: lethal compound cotreated with modulator NMMA; for AUC, modulator BJ.Nec-1: lethal compound cotreated with modulator Nec-1; for AUC, modulator BJ.Pepstatin: lethal compound cotreated with modulator Pepstatin; for AUC, modulator BJ.TLCK: lethal compound cotreated with modulator TLCK; for AUC, modulator BJ.atoc: lethal compound cotreated with modulator atoc; for AUC, modulator BJ.trolox: lethal compound cotreated with modulator trolox; for AUC, modulator BJ.zVAD: lethal compound cotreated with modulator zVAD

CN(C)CCNC(=O)c1cc2c(s1)-c1ccc(Cl)cc1SC2 [CIL55]
AUC HT.ATA [1]: 0.05195 | AUC HT.ActD [1]: −0.0079 | AUC HT.BHA [1]: 0.09593 | AUC HT.BHT [1]: 0.04919 | AUC HT.BocD [1]: 0.01568 | AUC HT.CHX [1]: −0.01039 | AUC HT.Co2+ [1]: 0.1152 | AUC HT.CspA [1]: −0.007883 | AUC HT.DPQ [1]: 0.01405 | AUC HT.EGTA [1]: 0.04877 | AUC HT.Gd3+ [1]: −0.01479 | AUC HT.LNAME [1]: 0.007171 | AUC HT.Lmim [1]: 0.07005 | AUC HT.NAD+ [1]: 0.03996 | AUC HT.NMMA [1]: 0.004761 | HT.atoc (AUC) [1]: 0.2074 | HT.bCarotene (AUC) [1]: 0.001297 | HT.deferox (AUC) [1]: 0.1108 | HT.digoxin (AUC) [1]: −0.0491 | HT.trolox (AUC) [1]: 0.1469 | HT.zVAD (AUC) [1]: 0.0266 | AUC, modulator BJ.3MA [2]: 0.06354 | AUC, modulator BJ.ALLN [2]: −0.04685 | AUC, modulator BJ.Boc D [2]: −0.01499 | AUC, modulator BJ.CHX [2]: 0.0373 | AUC, modulator BJ.Co2+ [2]: 0.03522 | AUC, modulator BJ.DPQ [2]: 0.01735 | AUC, modulator BJ.Gd3+ [2]: 0.003555 | AUC, modulator BJ.LNAME [2]: −0.02008 | AUC, modulator BJ.Lmin/NAD+ [2]: 0.1924 | AUC, modulator BJ.Lmin [2]: 0.08143 | AUC, modulator BJ.NAD+ [2]: 0.02772 | AUC, modulator BJ.NMMA [2]: −0.002759 | AUC, modulator BJ.Nec-1 [2]: 0.09849 | AUC, modulator BJ.Pepstatin [2]: 0.02873 | AUC, modulator BJ.TLCK [2]: 0.07378

COc1nn(-c2ccccc2)c(=O)c(Cl)c1Cl [CIL23]
AUC HT.ATA [1]: 0.01792 | AUC HT.ActD [1]: 0.01969 | AUC HT.BHA [1]: 0.00702 | AUC HT.BHT [1]: −0.02762 | AUC HT.BocD [1]: −0.01259 | AUC HT.CHX [1]: 0.08773 | AUC HT.Co2+ [1]: 0.03316 | AUC HT.CspA [1]: −0.02326 | AUC HT.DPQ [1]: 0.01052 | AUC HT.EGTA [1]: −0.01323 | AUC HT.Gd3+ [1]: −0.000221 | AUC HT.LNAME [1]: 0.005628 | AUC HT.Lmim [1]: 0.01608 | AUC HT.NAD+ [1]: −0.0002222 | AUC HT.NMMA [1]: −0.001084 | HT.atoc (AUC) [1]: 0.03663 | HT.bCarotene (AUC) [1]: −0.001122 | HT.deferox (AUC) [1]: 0.1512 | HT.digoxin (AUC) [1]: 0.03673 | HT.trolox (AUC) [1]: 0.004402 | HT.zVAD (AUC) [1]: 0.02043 | AUC, modulator HT.3MA [1]: 0.01609 | AUC, modulator HT.ALLN [1]: 0.001521 | AUC, modulator BJ.3MA [2]: −0.01613 | AUC, modulator BJ.ALLN [2]: −0.04561 | AUC, modulator BJ.Boc D [2]: −0.01959 | AUC, modulator BJ.CHX [2]: −0.02303 | AUC, modulator BJ.Co2+ [2]: −0.01594 | AUC, modulator BJ.DPQ [2]: 0.004379 | AUC, modulator BJ.Gd3+ [2]: 0.03265 | AUC, modulator BJ.LNAME [2]: −0.02129 | AUC, modulator BJ.Lmin/NAD+ [2]: 0.004125 | AUC, modulator BJ.Lmin [2]: −0.01617 | AUC, modulator BJ.NAD+ [2]: 0.005104 | AUC, modulator BJ.NMMA [2]: −0.01242 | AUC, modulator BJ.Nec-1 [2]: 0.03269 | AUC, modulator BJ.Pepstatin [2]: −0.001663 | AUC, modulator BJ.TLCK [2]: −0.007806 | AUC, modulator BJ.atoc [2]: 0.002315 | AUC, modulator BJ.trolox [2]: −0.02152 | AUC, modulator BJ.zVAD [2]: 0.04691

CCC(C(NNC(=O)c1ccc(C(F)(F)F)cc1)c1ccc(C(F)(F)F)cc1)[N+](=O)O (stereo not drawn) [CIL88]
AUC HT.ATA [1]: 0.08122 | AUC HT.ActD [1]: −0.03102 | AUC HT.BHA [1]: 0.007109 | AUC HT.BHT [1]: −0.09988 | AUC HT.BocD [1]: 0.02037 | AUC HT.CHX [1]: 0.04478 | AUC HT.Co2+ [1]: 0.01652 | AUC HT.CspA [1]: −0.05842 | AUC HT.DPQ [1]: −0.01431 | AUC HT.EGTA [1]: 0.01878 | AUC HT.Gd3+ [1]: −0.03651 | AUC HT.LNAME [1]: 0.02199 | AUC HT.Lmim [1]: 0.01907 | AUC HT.NAD+ [1]: 0.007478 | AUC HT.NMMA [1]: −0.000615 | HT.atoc (AUC) [1]: 0.07162 | HT.bCarotene (AUC) [1]: 0.02318 | HT.deferox (AUC) [1]: 0.0616 | HT.digoxin (AUC) [1]: 0.05526 | HT.trolox (AUC) [1]: −0.01577 | HT.zVAD (AUC) [1]: 0.04371 | AUC, modulator BJ.3MA [2]: 0.03093 | AUC, modulator BJ.ALLN [2]: −0.1424 | AUC, modulator BJ.Boc D [2]: −0.01445 | AUC, modulator BJ.CHX [2]: 0.2354 | AUC, modulator BJ.Co2+ [2]: 0.05379 | AUC, modulator BJ.DPQ [2]: −0.03608 | AUC, modulator BJ.Gd3+ [2]: −0.03652 | AUC, modulator BJ.LNAME [2]: 0.0201 | AUC, modulator BJ.Lmin/NAD+ [2]: 0.03399 | AUC, modulator BJ.Lmin [2]: −0.01241 | AUC, modulator BJ.NAD+ [2]: −0.03559 | AUC, modulator BJ.NMMA [2]: −0.01217 | AUC, modulator BJ.Nec-1 [2]: −0.03649 | AUC, modulator BJ.Pepstatin [2]: −0.06126 | AUC, modulator BJ.TLCK [2]: 0.0209

CC1=CC(C)(C)Nc2ccc(OC(=O)c3ccco3)cc21 [CIL2]
AUC HT.ATA [1]: 0.03084 | AUC HT.ActD [1]: −0.005228 | AUC HT.BHA [1]: −0.03767 | AUC HT.BHT [1]: −0.1327 | AUC HT.BocD [1]: 0.1395 | AUC HT.CHX [1]: 0.1414 | AUC HT.Co2+ [1]: −0.132 | AUC HT.CspA [1]: 0.01224 | AUC HT.DPQ [1]: −0.003125 | AUC HT.EGTA [1]: −0.005627 | AUC HT.Gd3+ [1]: −0.02304 | AUC HT.LNAME [1]: 0.02625 | AUC HT.Lmim [1]: −0.03013 | AUC HT.NAD+ [1]: 0.04925 | AUC HT.NMMA [1]: −0.03029 | AUC HT.Nec-1 ([1]; HT-1080, modulator Nec-1): −0.01273 | AUC HT.Pepstatin ([1]; HT-1080, modulator Pepstatin): 0.008816 | AUC HT.SP600125 ([1]; HT-1080, modulator SP600125): −0.003684 | AUC HT.TLCK ([1]; HT-1080, modulator TLCK): 0.02037 | AUC HT.U0126 ([1]; HT-1080, modulator U0126): 0.02089 | HT.atoc (AUC) [1]: 0.04757 | HT.bCarotene (AUC) [1]: −0.02687 | HT.deferox (AUC) [1]: 0.02963 | HT.digoxin (AUC) [1]: −0.01222 | HT.trolox (AUC) [1]: −0.03094 | HT.zVAD (AUC) [1]: −0.02828 | AUC, modulator HT.3MA [1]: 0.07178 | AUC, modulator HT.ALLN [1]: 0.05292 | AUC, modulator BJ.3MA [2]: 0.06431 | AUC, modulator BJ.ALLN [2]: −0.03978 | AUC, modulator BJ.Boc D [2]: −0.03808 | AUC, modulator BJ.CHX [2]: 0.03999 | AUC, modulator BJ.Co2+ [2]: −0.1362 | AUC, modulator BJ.DPQ [2]: 0.003929 | AUC, modulator BJ.Gd3+ [2]: 0.01322 | AUC, modulator BJ.LNAME [2]: −0.004423 | AUC, modulator BJ.Lmin/NAD+ [2]: −0.01944 | AUC, modulator BJ.Lmin [2]: 0.008318 | AUC, modulator BJ.NAD+ [2]: 0.03383 | AUC, modulator BJ.NMMA [2]: −0.005234 | AUC, modulator BJ.Nec-1 [2]: 0.0318 | AUC, modulator BJ.Pepstatin [2]: 0.05923 | AUC, modulator BJ.TLCK [2]: 0.06974 | AUC, modulator BJ.atoc [2]: −0.01149 | AUC, modulator BJ.trolox [2]: 0.001657 | AUC, modulator BJ.zVAD [2]: −0.003959
